Broadly, the inhibition is the relative decrease from the control value, in per cent.

The target of assay [1] is Poly [ADP-ribose] polymerase 2 (Homo sapiens) (UniProt Q9UGN5). Description: Inhibition of N-terminal GST tagged human PARP2 (2 to 583 residues) expressed in baculovirus infected Sf9 cells assessed as reduction in NAD+-dependent ADP ribosylation using histone as substrate at 10 uM incubated for 1 hr in presence of biotinylated NAD+ and activated DNA by chemiluminescence based microplate reader assay relative to control.
Sequence of Poly [ADP-ribose] polymerase 2 (Homo sapiens) (Q9UGN5 whole entry, the tested form may be a part): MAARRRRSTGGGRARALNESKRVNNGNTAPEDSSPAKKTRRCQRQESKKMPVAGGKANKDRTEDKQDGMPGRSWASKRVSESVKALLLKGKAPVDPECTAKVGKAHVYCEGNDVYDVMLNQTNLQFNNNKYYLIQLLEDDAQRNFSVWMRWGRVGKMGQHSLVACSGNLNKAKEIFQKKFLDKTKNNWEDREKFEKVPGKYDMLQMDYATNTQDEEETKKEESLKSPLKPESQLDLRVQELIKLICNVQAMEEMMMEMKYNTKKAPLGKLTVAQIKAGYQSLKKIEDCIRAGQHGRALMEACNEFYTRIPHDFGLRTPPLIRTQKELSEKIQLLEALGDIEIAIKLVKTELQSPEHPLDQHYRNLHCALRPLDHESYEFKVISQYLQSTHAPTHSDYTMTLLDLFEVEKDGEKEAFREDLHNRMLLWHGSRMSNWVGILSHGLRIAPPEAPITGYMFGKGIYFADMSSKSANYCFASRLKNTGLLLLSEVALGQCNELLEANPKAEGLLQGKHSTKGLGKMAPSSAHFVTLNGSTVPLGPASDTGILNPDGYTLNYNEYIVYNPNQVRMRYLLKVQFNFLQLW

For assay [2], the target named is T1, Protein mono-ADP-ribosyltransferase TIPARP (Homo sapiens) (UniProt Q7Z3E1).
T1 sequence (whole entry): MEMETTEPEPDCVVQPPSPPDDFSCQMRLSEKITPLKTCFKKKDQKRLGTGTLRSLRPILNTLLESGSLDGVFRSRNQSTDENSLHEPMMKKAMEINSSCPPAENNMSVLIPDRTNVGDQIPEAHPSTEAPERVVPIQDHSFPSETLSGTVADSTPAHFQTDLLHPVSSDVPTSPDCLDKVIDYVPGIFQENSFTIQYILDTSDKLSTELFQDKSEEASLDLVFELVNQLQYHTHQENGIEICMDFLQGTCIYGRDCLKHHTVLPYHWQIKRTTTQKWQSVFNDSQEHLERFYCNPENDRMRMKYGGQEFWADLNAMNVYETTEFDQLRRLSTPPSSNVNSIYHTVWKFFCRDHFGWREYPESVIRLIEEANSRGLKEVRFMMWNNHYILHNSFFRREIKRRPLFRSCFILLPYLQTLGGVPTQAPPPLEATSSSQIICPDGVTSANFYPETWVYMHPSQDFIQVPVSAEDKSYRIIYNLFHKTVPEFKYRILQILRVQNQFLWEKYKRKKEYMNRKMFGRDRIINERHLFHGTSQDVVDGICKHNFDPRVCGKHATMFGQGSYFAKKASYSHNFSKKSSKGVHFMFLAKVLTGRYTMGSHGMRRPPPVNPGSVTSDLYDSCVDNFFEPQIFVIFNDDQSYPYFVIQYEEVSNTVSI
Description: Inhibition of N-terminal FLAG-tagged human PARP7 (400 to 657 residues) expressed in baculovirus infected Sf9 cells assessed as reduction in NAD+-dependent ADP ribosylation using histone as substrate at 10 uM incubated for 1 hr in presence of biotinylated NAD+ and activated DNA by chemiluminescence based microplate reader assay relative to control.

Assay [3] deals with T2, Protein mono-ADP-ribosyltransferase PARP8 (Homo sapiens) (UniProt Q8N3A8).
T2 sequence (whole entry): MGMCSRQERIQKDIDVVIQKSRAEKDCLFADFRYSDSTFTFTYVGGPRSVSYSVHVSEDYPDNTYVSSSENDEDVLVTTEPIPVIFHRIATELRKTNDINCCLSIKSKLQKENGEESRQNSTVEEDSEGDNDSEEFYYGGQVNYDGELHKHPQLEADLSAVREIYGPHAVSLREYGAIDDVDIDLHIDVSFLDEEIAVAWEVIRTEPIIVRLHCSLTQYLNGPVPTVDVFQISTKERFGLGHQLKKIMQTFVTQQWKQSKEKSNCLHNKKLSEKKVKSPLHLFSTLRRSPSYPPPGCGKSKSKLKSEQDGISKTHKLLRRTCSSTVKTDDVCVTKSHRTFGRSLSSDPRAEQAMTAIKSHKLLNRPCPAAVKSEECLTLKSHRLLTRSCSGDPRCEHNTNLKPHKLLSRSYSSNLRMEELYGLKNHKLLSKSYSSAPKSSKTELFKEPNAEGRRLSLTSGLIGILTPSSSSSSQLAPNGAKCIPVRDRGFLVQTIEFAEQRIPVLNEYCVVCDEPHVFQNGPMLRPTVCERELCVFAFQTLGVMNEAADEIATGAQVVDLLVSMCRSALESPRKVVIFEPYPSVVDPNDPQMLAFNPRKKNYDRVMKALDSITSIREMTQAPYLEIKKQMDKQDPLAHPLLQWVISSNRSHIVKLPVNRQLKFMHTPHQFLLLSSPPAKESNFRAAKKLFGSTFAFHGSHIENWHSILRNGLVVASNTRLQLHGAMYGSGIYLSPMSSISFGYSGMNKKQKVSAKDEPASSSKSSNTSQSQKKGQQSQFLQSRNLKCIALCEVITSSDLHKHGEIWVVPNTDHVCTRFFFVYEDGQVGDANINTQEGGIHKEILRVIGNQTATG
Description: Inhibition of PARP8 (unknown origin) assessed as reduction in NAD+-dependent ADP ribosylation using histone as substrate at 10 uM incubated for 1 hr in presence of biotinylated NAD+ and activated DNA by chemiluminescence based microplate reader assay relative to control.

Assay [4] has as its target T3, Poly [ADP-ribose] polymerase tankyrase-2 (Homo sapiens) (UniProt Q9H2K2).
T3 sequence (whole entry): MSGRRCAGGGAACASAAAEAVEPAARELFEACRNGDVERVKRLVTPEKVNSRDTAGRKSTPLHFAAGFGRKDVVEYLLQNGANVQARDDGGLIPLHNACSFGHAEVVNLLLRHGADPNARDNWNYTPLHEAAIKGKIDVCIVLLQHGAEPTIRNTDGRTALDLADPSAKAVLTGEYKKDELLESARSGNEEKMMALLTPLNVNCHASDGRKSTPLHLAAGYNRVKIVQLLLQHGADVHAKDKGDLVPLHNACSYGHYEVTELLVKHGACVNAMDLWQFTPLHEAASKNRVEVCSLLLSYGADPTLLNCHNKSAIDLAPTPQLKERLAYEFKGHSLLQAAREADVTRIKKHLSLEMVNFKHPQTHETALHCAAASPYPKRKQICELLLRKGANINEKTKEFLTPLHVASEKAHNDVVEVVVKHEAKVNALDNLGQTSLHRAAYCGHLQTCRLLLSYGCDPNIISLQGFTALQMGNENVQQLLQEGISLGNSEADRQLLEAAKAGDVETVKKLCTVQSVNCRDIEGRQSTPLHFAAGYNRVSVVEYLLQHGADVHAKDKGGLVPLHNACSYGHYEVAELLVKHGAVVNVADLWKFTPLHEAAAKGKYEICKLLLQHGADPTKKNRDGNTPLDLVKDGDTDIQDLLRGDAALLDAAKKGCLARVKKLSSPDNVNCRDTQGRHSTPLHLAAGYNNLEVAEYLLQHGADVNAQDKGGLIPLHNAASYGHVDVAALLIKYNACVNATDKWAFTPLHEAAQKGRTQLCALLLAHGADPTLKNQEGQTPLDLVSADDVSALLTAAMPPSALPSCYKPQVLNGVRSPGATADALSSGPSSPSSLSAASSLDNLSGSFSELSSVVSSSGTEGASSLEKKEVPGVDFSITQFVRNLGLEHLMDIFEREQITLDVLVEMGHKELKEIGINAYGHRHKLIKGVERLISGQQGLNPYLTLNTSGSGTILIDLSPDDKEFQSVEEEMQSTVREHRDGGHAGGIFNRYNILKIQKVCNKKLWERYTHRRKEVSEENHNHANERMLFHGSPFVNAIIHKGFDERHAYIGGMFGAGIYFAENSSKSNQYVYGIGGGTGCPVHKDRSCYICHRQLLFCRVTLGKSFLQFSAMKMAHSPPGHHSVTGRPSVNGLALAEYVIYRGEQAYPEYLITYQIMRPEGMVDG
As to the kind of experiment: Inhibition of TNKS2 (unknown origin) at 10 uM relative to control.

With `CC1(CNC(=O)COc2cccc3c2CCCC3=O)CCN(C(=O)CCc2nc3ccccc3[nH]c2=O)CC1`, the inhibition in assay [1] was 100%; in assay [2], above 50%; in assay [3], 5%; in assay [4], above 50%.

Consider `CNC(=O)[C@H](CNC(=O)CCc1nc2ccccc2[nH]c1=O)NC(=O)c1ccc2c(c1)CCCC2=O`, for which the inhibition in assay [1], in assay [2], in assay [3] and in assay [4] was below 25% each time.

These data come from ChEMBL document CHEMBL4699460, “Integrating DNA-encoded chemical libraries with virtual combinatorial library screening: Optimizing a PARP10 inhibitor” (Bioorg Med Chem Lett, 2020).
